In patent US20260356849A1, “COMPOUNDS AND METHODS FOR TREATING CANCERS” (CEDARS-SINAI MEDICAL CENTER, priority 2022, published 2026):

Legend:
AML12 cells = assay: Cell cycle flow cytometry AML12; type: cell-based; conditions: 1-5 μM, 24 hours
[1] = system: CRC organoids from AKPS mice; assay: EdU assay of CRC organoids; type: cell-based; conditions: "10M", 24 hours
Experimental: An EdU assay of CRC organoids from AKPS mice (APCF/Fp53F/FKRAS+SMAD4KOCDX2ERT+) was treated with […] of compound C3 for 24 hours.

CC1(C)Cc2nc3sc4c(=O)n(CC(=O)NCc5ccco5)cnc4c3cc2CO1 [Compound C3, 2-(8,8-Dimethyl-4-oxo-7,10-dihydro-8H-pyrano[3″,4″: 5′,6′]pyrido[3′,2′: 4,5]thieno[3,2-d]pyrimidin-3 (4H)-yl)-N-(2-furylmethyl) acetamide]
G2/M arrest, AML12 (AML12 cells): did not occur | CRC organoid appearance [1]: does not affect appearance | CRC organoid growth [1]: inhibits CRC organoids growth
